The source of these data is ChEMBL document CHEMBL1201862, “PubChem BioAssay data set” (2004).

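Grown in 96-well plates, cells were treated for 48 hours with each compound at five concentrations. Insufficient inhibition: endpoint recorded as highest concentration tested. At the GI50, growth is halved.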 Active and inactive are the calls of the source. No stated cut-off is given here; in the data, active = GI50 up to about 1.1 µM and inactive = higher.

Test systems include A498; OVCAR-3; KM12; SF-268; HT-29; OVCAR-4; NCI-H23; ACHN; IGROV-1; HCT-15; OVCAR-8; K562; SK-OV-3; HL-60.
Holding throughout (experiment): NCI anticancer screen, dose series, 48 h

As to `COc1ccc2nc3cc(Cl)ccc3c(SCC(=O)Nc3ccccc3-c3ccccc3NC(=O)CSc3c4ccc(Cl)cc4nc4ccc(OC)cc34)c2c1`, the GI50 in the experiment on A498, with OVCAR-3, in the experiment on KM12, with SF-268, in the experiment on HT-29 and in the experiment on OVCAR-4 was > 100 µM (inactive) each time. Moreover, the GI50 in the experiment on NCI-H23 is > 100 µM (inactive); in the experiment with ACHN, > 100 µM (inactive); in the experiment on IGROV-1, > 100 µM (inactive); in the experiment with HCT-15, above 100 µM; in the experiment with OVCAR-8, > 100 µM (inactive); in the experiment on K562, > 100 µM (inactive). In addition, the GI50 in the experiment with SK-OV-3 is > 100 µM (inactive).
As for `CCOC(=O)c1[nH]c(CN(C)Cc2[nH]c(C(=O)OCC)c(C)c2C(=O)OCc2ccccc2)c(C(=O)OCc2ccccc2)c1C`, the GI50 was 15 µM (inactive) with A498; 10.4 µM (inactive) in the experiment with OVCAR-3; 7.45 µM (inactive) in the experiment with KM12; 10.7 µM (inactive) in the experiment with SF-268; 2.77 µM (inactive) with HT-29; 6.24 µM (inactive) in the experiment on OVCAR-4. Further, the GI50 is 12.3 µM (inactive) with NCI-H23; 18.4 µM (inactive) in the experiment on ACHN; 27.4 µM (inactive) with IGROV-1; 3.96 µM (inactive) in the experiment on HL-60; 8.3 µM in the experiment with HCT-15; 24 µM (inactive) in the experiment with OVCAR-8. Further, in the experiment with K562, the GI50 is 6.17 µM (inactive).
Consider `O=C(Cc1ccccc1)NN1C(=O)C(Cl)C1c1ccccc1O` (stereo unspecified), for which the GI50 in the experiment with OVCAR-3 was 2.64 µM (inactive); with SF-268, 13.5 µM (inactive); in the experiment on HT-29, 8.05 µM (inactive); with OVCAR-4, 8.81 µM (inactive); with NCI-H23, 20.4 µM (inactive); with ACHN, 6.98 µM (inactive). The GI50 was 25.8 µM (inactive) in the experiment with IGROV-1; 3.21 µM (inactive) in the experiment on HL-60; 5.85 µM with HCT-15; 22.4 µM (inactive) in the experiment with OVCAR-8; 14.4 µM (inactive) in the experiment with K562; 20.3 µM (inactive) with SK-OV-3.
Turning to `CNC1=Nc2ccc(Cl)cc2C(c2ccccc2)=NN1C`, the GI50 with A498 was 91.2 µM (inactive); with OVCAR-3 it was 45.4 µM (inactive); with KM12, > 100 µM (inactive); in the experiment on SF-268, 57.9 µM (inactive); in the experiment on HT-29, 56.5 µM (inactive); in the experiment with OVCAR-4, > 100 µM (inactive). In addition, the GI50 with NCI-H23 is > 100 µM (inactive); in the experiment on ACHN, > 100 µM (inactive); with IGROV-1, > 100 µM (inactive); in the experiment with HL-60, 46 µM (inactive); in the experiment on HCT-15, above 100 µM; in the experiment with OVCAR-8, > 100 µM (inactive). Moreover, in the experiment with K562, the GI50 is 51.2 µM (inactive).
As to `CC1=C(C(=O)Nc2ccccc2C)C(c2ccccc2C)C(C(=O)Nc2ccccc2C)=C(C)N1`, the GI50 with A498 is 16.8 µM (inactive); in the experiment with OVCAR-3, 16.6 µM (inactive); in the experiment with KM12 it was 18.4 µM (inactive); in the experiment on SF-268 it was 20.4 µM (inactive); in the experiment with HT-29, 20.3 µM (inactive); in the experiment on OVCAR-4, 24.4 µM (inactive). Further, the GI50 in the experiment with NCI-H23 was 21.5 µM (inactive); in the experiment with ACHN, 15.7 µM (inactive); in the experiment with IGROV-1 it was 18.5 µM (inactive); in the experiment with HL-60, 17 µM (inactive); in the experiment on HCT-15 it was 18.7 µM; with OVCAR-8 it was 19.1 µM (inactive). The GI50 in the experiment with K562 is 19.8 µM (inactive).
In the case of `Cn1cc(C(=O)C[n+]2ccccc2)c2ccccc21`, the GI50 is 28.9 µM (inactive) with A498; 20.9 µM (inactive) in the experiment with OVCAR-3; 50.2 µM (inactive) with KM12; 48.5 µM (inactive) in the experiment on HT-29; 46.1 µM (inactive) with OVCAR-4; > 100 µM (inactive) in the experiment on NCI-H23. In addition, the GI50 in the experiment with ACHN is > 100 µM (inactive); in the experiment on IGROV-1, 72.1 µM (inactive); in the experiment with HL-60, > 100 µM (inactive); in the experiment with HCT-15 it was above 100 µM; in the experiment with OVCAR-8, 58.6 µM (inactive); in the experiment with K562, 33.6 µM (inactive).
